Measured values as given in publication PMC9374667 (Communications Biology, 2022).
“And” between values parts separate entries of the source, which are not always exact repeats. Identical values can stand only once.

Assays:
3T3-L1 adipocytes = experiment: Oil Red O staining and lipid quantification; format: cell-based, Murine; conditions: for Oil Red O staining of differentiated 3T3-L1 adipocytes spectrophotometric analysis: Figure 7b, replicates;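 as to Oil Red O staining of differentiated 3T3-L1 adipocytes spectrophotometric analysis: treatment added on day 8 of adipocyte differentiation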
Description: Meanwhile, we conducted in vitro experiments to validate the role of BJ in adipocytes. […] These findings were similar to the results in vivo.
Murine 3T3-L1 preadipocytes were the kind gift of Prof. Wenbin Shang and Prof. Xizhong Yu (Nanjing University of Chinese Medicine, China). Cells were cultured in Dulbecco’s modified Eagle’s medium (DMEM) supplemented with 10% (vol/vol) fetal bovine serum (FBS), 1% (vol/vol) penicillin/streptomycin in an incubator at 37 °C and 5% CO2 (until confluent). Two days after the preadipocytes reached 100% confluency (designated day 0), the cells were cultured in DMEM with 10% FBS supplemented with IBMX (0.5 mM final concentration), DEX (1 μM final concentration), and insulin (10 μg/ml final concentration) for 3 days (days 0–3). Then the cells were cultured in a medium containing insulin (10 μg/ml final concentration) for another 3 days (days 3–6).
Lipid accumulation in differentiated adipocytes was observed by Oil Red O staining. The differentiated 3T3-L1 adipocytes were washed with PBS for 3 times and fixed with 4% paraformaldehyde for 30 min at room temperature. The fixed 3T3-L1 adipocytes were washed with PBS for 3 times and stained with Oil Red O solution at room temperature for 60 min. Stained lipid droplets were photographed and then eluted with 100% isopropanol stained Oil Red O. Finally, the optical density (OD) value of the eluent was measured at 510 nm wavelength with a microplate reader.

TBK1 = biological target: T1, TBK1 (Mus musculus, UniProt Q9WUN2); experiment: 3T3-L1 adipocytes transfected with TBK1 plasmid (western blotting, immunofluorescence); format: cell-based, Murine; design: host or cells: differentiated 3T3-L1 adipocytes (Lipofectamine 2000); TBK1 (western blotting, Figure 8a) / p-TBK1 (western blotting, Figure 8b) / p-AMPKα (western blotting, Figure 8c) / UCP1 (western blotting, Figure 8d): scale not given here; conditions: for Mean Intensity: 2μg TBK1 + 10μM BJ, individual replicates
T1 sequence (Q9WUN2 1-729): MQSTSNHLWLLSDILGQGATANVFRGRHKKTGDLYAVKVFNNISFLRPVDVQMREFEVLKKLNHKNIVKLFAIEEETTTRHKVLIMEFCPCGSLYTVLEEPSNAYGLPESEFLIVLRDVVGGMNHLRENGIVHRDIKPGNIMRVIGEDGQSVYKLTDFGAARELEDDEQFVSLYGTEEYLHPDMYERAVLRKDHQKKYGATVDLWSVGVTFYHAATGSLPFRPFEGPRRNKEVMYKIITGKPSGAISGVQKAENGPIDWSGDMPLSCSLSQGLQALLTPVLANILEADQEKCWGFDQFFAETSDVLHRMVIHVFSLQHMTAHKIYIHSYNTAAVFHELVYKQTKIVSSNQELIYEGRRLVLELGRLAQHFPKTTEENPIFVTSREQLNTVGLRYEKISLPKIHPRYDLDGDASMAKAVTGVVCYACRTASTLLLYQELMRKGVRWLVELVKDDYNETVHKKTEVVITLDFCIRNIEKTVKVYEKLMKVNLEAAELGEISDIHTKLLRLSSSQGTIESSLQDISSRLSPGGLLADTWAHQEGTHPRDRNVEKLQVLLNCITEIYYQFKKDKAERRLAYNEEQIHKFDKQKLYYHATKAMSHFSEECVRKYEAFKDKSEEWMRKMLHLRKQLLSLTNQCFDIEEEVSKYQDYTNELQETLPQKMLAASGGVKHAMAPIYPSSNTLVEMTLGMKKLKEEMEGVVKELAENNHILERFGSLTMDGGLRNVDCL
Description: […] The 3T3-L1 adipocytes were washed with PBS for 3 times, fixed with 4% paraformaldehyde solution for 30 min, and then washed again for 3 times. […] The cells were then incubated overnight at 4 °C with the appropriate primary antibodies (1:100 dilution). The next day, the 3T3-L1 adipocytes were washed and incubated at room temperature with goat anti-rabbit secondary antibody or goat anti-mouse secondary antibody (1:1000 dilution) for 2 h and washed with PBS for 3 times. The nuclei were stained with DAPI. […] Fluorescence images were taken using a laser confocal microscope (SP8, Leica, Germany). At least four images per section were acquired for quantification, and the mean intensity were evaluated using ImageJ. The adipose tissue or 3T3-L1 adipocytes were homogenized by ultrasound in an ice-cold RIPA lysis buffer containing 1% PMSF and centrifuged at 12,000 × g at 4°C for 15 min to collect the supernatant. The BCA protein assay kit (Beyotime, Shanghai, China) was used to detect the total protein concentration. Proteins (20-30 μg) of the sample were separated by 10% SDS-PAGE gel and transferred onto polyvinylidene difluoride (PVDF) membranes. Then the PVDF membranes were blocked in 5% skim milk powder in TBS containing 1% Tween-20 (TBST) for 2 h at room temperature and washed with TBST for 3 times. […] After washing, the membranes were incubated with horseradish peroxidase-conjugated secondary antibodies (in 5% skim milk powder) for 1 h at room temperature. Finally, the membranes were treated with enhanced chemiluminescence agents (Tanon, Shanghai, China) and the signals were monitored using the Tanon 5200 multi chemiluminescent imaging system (Tanon, Shanghai, China).

[1] = 3T3-L1 adipocytes transfected with TBK1 plasmid, 10 μM BJ, vs TBK1 transfection

Structure (SMILES) | Oil Red O staining of differentiated 3T3-L1 adipocytes spectrophotometric analysis (3T3-L1 adipocytes; 10μM BBR) | Oil Red O staining of differentiated 3T3-L1 adipocytes spectrophotometric analysis (3T3-L1 adipocytes; 3μM BJ) | Oil Red O staining of differentiated 3T3-L1 adipocytes spectrophotometric analysis (3T3-L1 adipocytes; 10μM BJ) | Accumulation of lipid droplets (3T3-L1 adipocytes; differentiated 3T3-L1 adipocytes, BJ 3 μM and 10 μM, 24 h, Oil Red O) | TBK1 (western blotting, Figure 8a) (TBK1; 2μg TBK1+10μM BJ) | UCP1 (western blotting, Figure 8d) (TBK1; 2μg TBK1+10μM BJ) | p-AMPKα (western blotting, Figure 8c) (TBK1; 2μg TBK1+10μM BJ) | p-TBK1 (western blotting, Figure 8b) (TBK1; 2μg TBK1+10μM BJ) | TBK1 (western blotting, Figure 8a) (TBK1; 10μM BJ) | UCP1 (western blotting, Figure 8d) (TBK1; 10μM BJ) | p-AMPKα (western blotting, Figure 8c) (TBK1; 10μM BJ) | p-TBK1 (western blotting, Figure 8b) (TBK1; 10μM BJ) | Phosphorylation of TBK1 at Ser172 (TBK1; 3T3-L1 adipocytes transfected with TBK1 plasmid, 10 μM BJ) | Phosphorylation of AMPKα Thr172 and UCP1 protein levels (TBK1; [1]) | TBK1 protein levels (TBK1; [1]) | Mean Intensity (TBK1; Figure S11c) | Mean Intensity (TBK1; Figure S11g) | Mean Intensity (TBK1; Figure S11d) | Mean Intensity (TBK1; sheet Figure S11h)
COc1ccc2cc3[n+](cc2c1OC)CCc1cc2c(cc1-3)OCO2 [BBR, Berberine chloride dihydrate] | 0.6307 O.D. and 0.6591 O.D. and 0.6319 O.D. and 0.6294 O.D. and 0.6584 O.D. and 0.6194 O.D. |  |  |  |  |  |  |  |  |  |  |  |  |  |  |  |  |  | 
CC(C)Cc1ccc(C(C)C(=O)[O-])cc1.COc1ccc2cc3[n+](cc2c1OC)CCc1cc2c(cc1-3)OCO2.O.O.O.O [BJ, berberine-ibuprofen] |  | 0.6023 O.D. and 0.5794 O.D. and 0.5902 O.D. and 0.5901 O.D. and 0.5958 O.D. and 0.5823 O.D. | 0.6036 O.D. and 0.5893 O.D. and 0.5433 O.D. and 0.5202 O.D. and 0.5568 O.D. and 0.48 O.D. | reduced the accumulation of lipid droplets in 3T3-L1 adipocytes in a dose-dependent manner | 0.5408 and 0.448 and 0.5761 | 0.7389 and 0.5561 and 0.5877 | 0.3928 and 0.3723 and 0.348 | 0.5922 and 0.4 and 0.4766 | 0.38 and 0.387 and 0.3646 | 0.5655 and 0.6018 and 0.6331 | 0.4524 and 0.4108 and 0.3523 | 0.5028 and 0.4045 and 0.6995 | increased the phosphorylation of TBK1 at Ser172 | increased the phosphorylation of AMPKα Thr172 and increased the UCP1 protein levels | markedly reduced the TBK1 protein levels | 20.873 A.U. and 18.04 A.U. and 17.203 A.U. and 19.263 A.U. and 18.463 A.U. and 18.776 A.U. and 23.056 A.U. and 11.015 A.U. and 23.907 A.U. and 21.41 A.U. and 21.836 A.U. and 20.009 A.U. | 11.659 A.U. and 7.08 A.U. and 13.692 A.U. and 12.377 A.U. and 10.165 A.U. and 17.942 A.U. and 13.51 A.U. and 14.616 A.U. and 14.87 A.U. and 10.529 A.U. and 9.155 A.U. and 10.462 A.U. | 20.305 A.U. and 17.417 A.U. and 18.699 A.U. and 21.221 A.U. and 16.857 A.U. and 15.382 A.U. and 18.398 A.U. and 14.495 A.U. and 16.691 A.U. and 21.635 A.U. and 11.895 A.U. and 12.802 A.U. | 18.036 A.U. and 17.064 A.U. and 12.941 A.U. and 17.572 A.U. and 15.135 A.U. and 12.981 A.U. and 16.45 A.U. and 12.776 A.U. and 13.679 A.U. and 13.503 A.U. and 12.749 A.U. and 17.882 A.U.
